Experimental data taken from patent US11453703B2, “Heterotandem bicyclic peptide complexes” (BicycleTX Limited, priority 2018, dated 2022).

Target: CD137 (Homo sapiens, UniProt Q07011)
Assay: CD137 reporter assay, co-culture with PD-L1 expressing cell line RKO
Assay type: cell-based
Parameters: host or cells: Jurkat reporter cells
Details: tumour target PD-L1, co-culture with RKO, 6 h
Method: Culture medium referred to as R1 media is prepared by adding 1% FBS to RPMI-1640 (component of Promega kit CS196005). Serial dilutions of test articles in R1 are prepared in a sterile 96 well-plate. Use 25 μl per well of test articles or R1 (as a background control) to designated wells in white cell culture plate. Tumour cells* are harvested and resuspended at a concentration of 400,000 cells/mL in R1 media. Twenty five (25) μL/well tumour cells are used in white cell culture plate. Jurkat cells (Promega kit CS196005, 0.5 mL) are thawed in the water bath and then added to 5 ml pre-warmed R1 medium. Twenty five (25) μL/well Jurkat cells are used in white cell culture plate. Incubate the cells and test articles for 6h at 37° C., 5% CO2. At the end of 6 h, add 75 μl/well Bio-Glo™ (Promega) and incubate for 10 min before reading luminescence in a plate reader (Clariostar, BMG). The fold change relative to cells (Jurkat cells+Cell line used in co-culture) is calculated and plotted in GraphPad Prism as log(agonist) vs response to determine EC50 (nM) and Fold Induction over background (Max)

Sequence of CD137 (Q07011 24-255): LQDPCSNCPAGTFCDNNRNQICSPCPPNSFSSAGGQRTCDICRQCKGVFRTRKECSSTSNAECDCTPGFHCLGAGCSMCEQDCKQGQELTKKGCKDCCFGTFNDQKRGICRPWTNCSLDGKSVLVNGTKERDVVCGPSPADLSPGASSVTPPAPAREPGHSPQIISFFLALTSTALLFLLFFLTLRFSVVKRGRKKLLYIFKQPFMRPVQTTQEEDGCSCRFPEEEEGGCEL

Row | SMILES | EC50 [nM] | Fold Induction over Background [fold]
1 | CCCC[C@@H]1NC(=O)[C@H](Cc2ccc(O)cc2)NC(=O)[C@@H]2CCCN2C(=O)[C@H](CC(=O)O)NC(=O)[C@H](C)NC(=O)[C@H](Cc2ccccc2)NC(=O)[C@@H]2CSCCC(=O)N3CN(CN(C3)C(=O)CCSC[C@@H](C(=O)N[C@@H](CNC(=O)CCOCCOCCOCCOCCOCCOCCOCCOCCOCCOCCOCCOCCn3cc(CCC(=O)NCCC(=O)N(C)CC(=O)N(C)CC(=O)N(C)CC(=O)N(C)CC(=O)N(C)CC(=O)N(C)CC(=O)N(C)CC(=O)N(C)CC(=O)N(C)CC(=O)N(C)CC(=O)N[C@@H](CO)C(=O)N[C@@H](CC(=O)O)C(=O)N[C@@H](CCCCN)C(=O)N[C@H]4CSCCC(=O)N5CN6CN(C5)C(=O)CCSC[C@H](NC(=O)[C@H](CCSC)NC(=O)[C@H]([C@@H](C)O)NC(=O)[C@H](CC(C)C)NC(=O)[C@H](Cc5c[nH]c7ccccc57)NC(=O)CNC(=O)[C@H](C)NC(=O)[C@H](CO)NC4=O)C(=O)N[C@@H](CCC(N)=O)C(=O)N[C@@H](CCCCN)C(=O)N[C@@H](CC(C)C)C(=O)N[C@@H](Cc4c[nH]cn4)C(=O)N[C@@H](CC(C)C)C(=O)N[C@H](C(N)=O)CSCCC6=O)nn3)C(N)=O)NC1=O)C(=O)CCSC[C@H](NC(C)=O)C(=O)N[C@@H](CC(C)(C)C)C(=O)N1CCC[C@H]1C(=O)N[C@@H](CCC(=O)O)C(=O)N[C@H](C)C(=O)N1CCC[C@H]1C(=O)N[C@@H](Cc1ccc(O)cc1)C(=O)N2 [BCY10580] | 28 | 3
2 | CCCC[C@@H]1NC(=O)[C@H](Cc2ccc(O)cc2)NC(=O)[C@@H]2CCCN2C(=O)[C@H](CC(=O)O)NC(=O)[C@H](C)NC(=O)[C@H](Cc2ccccc2)NC(=O)[C@@H]2CSCCC(=O)N3CN(CN(C3)C(=O)CCSC[C@@H](C(=O)N[C@@H](C)C(N)=O)NC1=O)C(=O)CCSC[C@H](NC(C)=O)C(=O)N[C@@H](CC(C)(C)C)C(=O)N1CCC[C@H]1C(=O)N[C@@H](CCCCNC(=O)Cn1cc(CCC(=O)NCCCC[C@@H]3NC(=O)[C@H](CCC(N)=O)NC(=O)[C@@H]4CSCCC(=O)N5CN(CN(C5)C(=O)CCSC[C@@H](C(=O)N5CCC[C@H]5C(=O)N[C@@H](CO)C(=O)N[C@@H](Cc5c[nH]cn5)C(N)=O)NC(=O)[C@H](CC(C)C)NC(=O)[C@H](Cc5c[nH]cn5)NC(=O)[C@H](CC(C)C)NC3=O)C(=O)CCSC[C@H](NC(=O)[C@H](CCCCN)NC(=O)[C@H](CC(=O)O)NC(=O)[C@H](CO)NC(C)=O)C(=O)N[C@@H](CO)C(=O)N[C@@H](C)C(=O)NCC(=O)N[C@@H](Cc3c[nH]c5ccccc35)C(=O)N[C@@H](CC(C)C)C(=O)N[C@@H]([C@@H](C)O)C(=O)N[C@@H](CCSC)C(=O)N4)nn1)C(=O)N[C@H](C)C(=O)N1CCC[C@H]1C(=O)N[C@@H](Cc1ccc(O)cc1)C(=O)N2 [BCY11376] |  | 9
3 | CCCC[C@@H]1NC(=O)[C@H](Cc2ccc(O)cc2)NC(=O)[C@@H]2CCCN2C(=O)[C@H](CC(=O)O)NC(=O)[C@H](C)NC(=O)[C@H](Cc2ccccc2)NC(=O)[C@@H]2CSCCC(=O)N3CN(CN(C3)C(=O)CCSC[C@@H](C(=O)N[C@@H](C)C(N)=O)NC1=O)C(=O)CCSC[C@H](NC(C)=O)C(=O)N[C@@H](CC(C)(C)C)C(=O)N1CCC[C@H]1C(=O)N[C@@H](CCC(=O)O)C(=O)N[C@H](CCCCNC(=O)CCOCCOCCOCCOCCOCCn1cc(CCC(=O)NCCCC[C@@H]3NC(=O)[C@H](CCC(N)=O)NC(=O)[C@@H]4CSCCC(=O)N5CN(CN(C5)C(=O)CCSC[C@@H](C(=O)N5CCC[C@H]5C(=O)N[C@@H](CO)C(=O)N[C@@H](Cc5c[nH]cn5)C(N)=O)NC(=O)[C@H](CC(C)C)NC(=O)[C@H](Cc5c[nH]cn5)NC(=O)[C@H](CC(C)C)NC3=O)C(=O)CCSC[C@H](NC(=O)[C@H](CCCCN)NC(=O)[C@H](CC(=O)O)NC(=O)[C@H](CO)NC(C)=O)C(=O)N[C@@H](CO)C(=O)N[C@@H](C)C(=O)NCC(=O)N[C@@H](Cc3c[nH]c5ccccc35)C(=O)N[C@@H](CC(C)C)C(=O)N[C@@H]([C@@H](C)O)C(=O)N[C@@H](CCSC)C(=O)N4)nn1)C(=O)N1CCC[C@H]1C(=O)N[C@@H](Cc1ccc(O)cc1)C(=O)N2 [BCY11380] |  | 7
